Assay results published in patent US20050182051A1, “Fungicidal mixtures based on benzamidoxime derivative and a strobilurin derivative” (priority 2002, published 2005).

System: Erysiphe [syn. Blumeria] graminis forma specialis. tritici
Assay: Activity against mildew of wheat (protective spray test on potted wheat seedlings)
Format: in vivo
Conditions: wheat seedlings cv. Kanzler, rated after 7 days
Protocol: The active compounds, separately or together, were formulated as a 10% emulsion in a mixture of 63% by weight of cyclohexanone and 27% by weight of emulsifier, and diluted with water to the desired concentration.
Evaluation was carried out by determining the infected leaf areas in percent. These percentages were converted into efficacies. The efficacy (w) was calculated as follows using Abbot's formula: [formula] • α corresponds to the fungal infection of the treated plants in % and • β corresponds to the fungal infection of the untreated (control) plants in %
An efficacy of 0 means that the infection level of the treated plants corresponds to that of the untreated control plants; an efficacy of 100 means that the treated plants were not infected.
The expected efficacies of the mixtures of the active compounds were determined using Colby's formula [R. S. Colby, Weeds 15, 20-22 (1967)] and compared with the observed efficacies. E =x+y−x·y/100 Colby's formula: • E expected efficacy, expressed in % of the untreated control, when using the mixture of the active compounds A and B at the concentrations a and b • x efficacy, expressed in % of the untreated control, when using active compound A at a concentration of a • y efficacy, expressed in % of the untreated control, when using active compound B at a concentration of b
Activity Against Mildew of Wheat Caused by Erysiphe [syn. Blumeria] graminis forma Specialis. tritici
Leaves of wheat seedlings of the cultivar “Kanzler” grown in pots were sprayed to runoff point with an aqueous preparation of active compound which had been prepared from a stock solution comprising 10% of active compound, 85% of cyclohexanone and 5% of emulsifier. 24 hours after the spray coating had dried on, the plants were dusted with spores of mildew of wheat (Erysiphe [syn. Blumeria] graminis forma specialis. tritici). The test plants were then placed in a greenhouse at 20-24° C. and 60-90% relative atmospheric humidity. After 7 days, the extent of the mildew development was determined visually in % infection of the entire leaf area.
The visually determined values for the percentage of infected leaf areas were converted into efficacies in % of the untreated control. An efficacy of 0 means the same degree of infection as in the untreated control, an efficacy of 100 means 0% infection. The expected efficacies for combinations of active compounds were determined using Colby's formula (Colby, S. R. (Calculating synergistic and antagonistic responses of herbicide Combinations”, Weeds, 15, p. 20-22, 1967) and compared to the observed effacacies.

[1] = 1 ppm in the spray liquor, inoculated 24 h after spraying

Measured: Efficacy in % of the untreated control

CO/N=C(/C(=O)OC)c1ccccc1COc1ccccc1C [kresoxim-methyl]
0%: 0.06 ppm in the spray liquor | 0.25 ppm in the spray liquor | [1]

CO/C=C(/C(=O)OC)c1ccccc1Oc1cc(Oc2ccccc2C#N)ncn1 [azoxystrobin]
0%: 0.015 ppm in the spray liquor | 0.25 ppm in the spray liquor | [1]

COC(=O)N(OC)c1ccccc1COc1ccn(-c2ccc(Cl)cc2)n1 [pyraclostrobin]
0%: 0.06 ppm in the spray liquor | 0.25 ppm in the spray liquor | [1]
